This note sets out measurements from EP2325187A1, “THE HYDROSULFATE OF PRASUGREL, ITS PHARMACEUTICAL COMBINATION AND USES THEREOF” (priority 2008, dated 2010).

For series [1] the following is noted: dog, in vivo, 10 mg/kg. From the text:
Six healthy male beagle dogs of around 7-month-old, without statistical difference in their weights, are used in the experiments and fed normally for 2 weeks without receiving any drug. Six beagle dogs are divided randomly into prasugrel bisulfate group and prasugrel hydrochloride group, with 3 dogs in each group. Following the process disclosed in Experimental Example 1 of Chinese Patent Publication No. CN1214031A, the pharmacokinetic parameters of S-methylate in the plasma of the dogs in each group after administration are determined (the administration dosage for both groups is 10mg/kg).

Series [2] relates to platelet aggregation induced by ADP. In words: Inhibition of platelet aggregation induced by ADP (platelet-rich plasma taken from dosed rats). In kind it is in vivo. Here is the method: (§1) […] male SD rats weighted 200-300g are provided by the Experimental Animal Center of Lunan Pharmaceutical Group corporation and are divided randomly into 5 groups with 10 rats in each group. The animals are acclimatized for one week before experiment. The animals in the excipient group (equivalent volume of physiological saline), prasugrel maleate group (10mg/kg), prasugrel bisulfate group (10mg/kg) are administered by gastric gavage once each day for 7 days.
(§2) Two days after administered as above, the animals are starved over night. One hour after administered on the second day, the animals are anaesthetized by intraperitoneal injection of urethane, and then celiotomized to separate the abdominal aorta. A polyethylene cannula is inserted to collect 5 ml of blood into a test tube (in the tube is placed beforehand 0.5 ml of 3.8% sodium citrate solution, i.e. the ratio of the anticoagulant solution and blood is 1:9). The whole blood is centrifuged at 1000 rpm for 4 min. 1 ml of platelet-rich plasma (PRP) is taken. The remaining liquid is centrifuged at 3000 rpm for further 8 min. 1 ml of platelet-poor plasma (PPP) is taken. The two samples are placed separately in two plastic test tubes under a constant temperature of (37±0.1)°C. Using ADP (30 ul/tube) and collagen (30 ul/tube) as aggregation inducers, the maximum aggregation intensity is determined and the inhibition rate is calculated. Rate of inhibiting aggregation = (aggregation intensity for excipient group-aggregation intensity for experimental group)/aggregation intensity for excipient group × 100% [formula]

The subject of series [3] is platelet aggregation induced by collagen. Description: Inhibition of platelet aggregation induced by collagen (platelet-rich plasma taken from dosed rats). Format: in vivo. On the procedure: as §1, §2
The subject of series [4] is rats. In words: Determination of the rate of hemorrhage (hyperemia, oedema, hemorrhage in the gastric mucosa). In kind it is in vivo. Here is the method: as §1
After the rate of inhibiting aggregation is determined, the rats are sacrificed and dissected. The appearances of hyperemiam, oedema, hemorrhage in the gastric mucosa are examined with the aid of a magnifier, and the rats developed with hyperemiam, oedema, hemorrhage in the gastric mucosa are recorded into corresponding test groups as cases of hemorrhage.

The mark [5] stands for this setting: rats, 10mg/kg by gastric gavage, n=10 per group, gastric mucosa.

On to `CC(=O)Oc1cc2c(s1)CCN(C(C(=O)C1CC1)c1ccccc1F)C2` (stereo not drawn) [Prasugrel Bisulfate, 2-acetyloxy-5-(α-cycloproylcarbonyl-2-fluorobenzyl)-4,5,6,7-tetrahydrothieno[3,2-C]pyridine bisulfate], for which, in series [1], the AUC came out at 82.3 ± 7.6 µg·min/mL, the Cmax came to 1210 ± 130 ng/mL and the bioavailability result is reported as “better bioavailability than prasugrel hydrochloride”. Also, the “ADP Aggregation Intensity (%)” value in series [2] (10mg/kg by gastric gavage once each day, inducer ADP 30 ul/tube, maximum aggregation intensity) stood at 0.336±0.075 %. Also, the “inhibition to platelet aggregation induced by ADP” value in series [2] (10mg/kg, result in words) was “very significant inhibition”. Also, the inhibition at 10 mg/kg in series [2] (Rattus norvegicus, Platelet, po, 10mg/kg by gastric gavage once each day, inducer ADP 30 ul/tube, relative to excipient group, read-out: ADP Inhibition Rate (%)) is 48.5 ± 10.6%. Further, the “Collagen Aggregation Intensity (%)” value in series [3] (10mg/kg by gastric gavage once each day, inducer collagen 30 ul/tube, maximum aggregation intensity) is listed as 0.346±0.083 %. The “inhibition to platelet aggregation induced by collagen” value in series [3] (10mg/kg, result in words) was “very significant inhibition”. Moreover, the inhibition at 10 mg/kg in series [3] (Rattus norvegicus, Platelet, po, 10mg/kg by gastric gavage once each day, inducer collagen 30 ul/tube, relative to excipient group, read-out: Collagen Inhibition Rate (%)) worked out at 54.3 ± 13.5%. For the same compound, the rate of hemorrhage result in series [4] (rat, in vivo) was “significantly lower than that in the prasugrel maleate group”. In addition, in series [4] (setting [5]), the “Cases of Hemorrhage” value turned out to be 1 and the “Rate of Hemorrhage (%)” value turned out to be 10%.

One may read the AUC as concentration integrated over time. Broadly, the Cmax is the maximum level reached in the sampled fluid or tissue. One may read the inhibition as the drop in the measured response relative to a control, in per cent.
